Where two headings read alike, the source gives them in different places. One block for each compound: values may come before it.
Test system: HCT116 colon cancer cells
Assay: KSP Cellular Assay (percent of cells staining positive for Phos-Histone H3 / Phos-MPM2)
Format: cell-based
Conditions: Homo sapiens, read-out: EC50 (nM) Range
Method in brief: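 HCT116 cells treated with compound for 16 hours, fixed and stained with Hoechst plus Phos-Histone H3 (ser10) and Phos-MPM2 antibodies. Percent positive cells from immunofluorescence imaging; EC50 by sigmoidal nonlinear regression over 8-point dilutions in duplicate.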

[1] = HCT-116, 16 h, table of Example 1901, HCT116 cells, 16 hours with drug
[2] = HCT-116, table of Example 2001, HCT116 cells, 16 hours with drug
[3] = HCT-116, 16 h, table of Example 2001, HCT116 cells, 16 hours with drug
[4] = HCT-116, 16 h, table of Example 2101, HCT116 cells, 16 hours with drug
[5] = HCT-116, 16 h, table of Example 2201, HCT116 cells, 16 hours with drug
[6] = HCT-116, 16 h, table of Example 2301, HCT116 cells, 16 hours with drug
[7] = HCT-116, 16 h, table of Example 2501, HCT116 cells, 16 hours with drug
[8] = HCT-116, 16 h, table of Example 2701, HCT116 cells, 16 hours with drug
[9] = HCT-116, 16 h, table of Example 2901, HCT116 cells, 16 hours with drug

SMILES: COCCOCC(=O)N1N=C(c2cc(F)ccc2F)S[C@@]12c1cc(F)ccc1OC[C@H]2CCN [compound 1906]
EC50 [1]: ≤ 500 nM

SMILES: CO[C@@H](C)C(=O)N1N=C(c2cc(F)ccc2F)S[C@@]12c1cc(F)cc(F)c1OC[C@H]2CCN [compound 1907]
EC50 [1]: ≤ 500 nM

SMILES: CO[C@@H](C)C(=O)N1N=C(c2cc(F)ccc2F)S[C@]12c1cc(F)cc(F)c1OC[C@@H]2CCN [compound 1908]
EC50 [1]: > 1000 nM

SMILES: COCCOCC(=O)N1N=C(c2cc(F)ccc2F)S[C@@]12c1cc(F)cc(F)c1OC[C@H]2CCN [compound 1911]
EC50 [1]: ≤ 500 nM

SMILES: COCCOCC(=O)N1N=C(c2cc(F)ccc2F)S[C@]12c1cc(F)cc(F)c1OC[C@@H]2CCN [compound 1912]
EC50 [1]: > 1000 nM

SMILES: NCC[C@H]1COc2ccccc2[C@]12SC(c1cc(F)ccc1F)=NN2C(=O)CF [compound 2001]
EC50 [2]: ≤ 500 nM

SMILES: NCC[C@@H]1COc2ccccc2[C@@]12SC(c1cc(F)ccc1F)=NN2C(=O)CF [compound 2002]
EC50 [2]: ≤ 500 nM

SMILES: Fc1ccc(F)c(C2=NN3CCC4COc5ccccc5C43S2)c1 (stereo not drawn) [compound 2302]
EC50 [6]: > 1000 nM

SMILES: CC(=O)N1N=C(c2cc(F)ccc2F)S[C@]12CCNc1ccccc12 [compound 2402]
EC50 (HCT-116, 16 h, table of Example 2401, HCT116 cells, 16 hours with drug): > 1000 nM

SMILES: CC(=O)N1N=C(c2cc(F)ccc2F)S[C@]12c1ccccc1NC[C@@H]2CCO [compound 2501]
EC50 [7]: ≤ 500 nM

SMILES: CC(=O)N1N=C(c2cc(F)ccc2F)S[C@@]12c1ccccc1NC[C@H]2CCO [compound 2502]
EC50 [7]: ≤ 500 nM

SMILES: CC(=O)N1N=C(c2cc(F)ccc2F)S[C@]12c1ccccc1NC[C@H]2CCN [compound 2701]
EC50 [8]: ≤ 500 nM

SMILES: CC(=O)NCC[C@H]1CNc2ccccc2[C@]12SC(c1cc(F)ccc1F)=NN2C(C)=O [compound 2702]
EC50 [8]: 500 to 1000 nM

SMILES: CC(=O)N1N=C(c2cc(F)ccc2F)S[C@@]12c1cc(F)ccc1NC[C@H]2CCN [compound 2902]
EC50 [9]: ≤ 500 nM

SMILES: CC(=O)N1N=C(c2cc(F)ccc2F)S[C@]12c1cc(F)ccc1NC[C@H]2CCN [compound 2903]
EC50 [9]: ≤ 500 nM

SMILES: CC(=O)N1N=C(c2cc(F)ccc2F)S[C@]12c1cc(F)ccc1NC[C@@H]2CCN [compound 2904]
EC50 [9]: > 1000 nM

SMILES: Fc1ccc(F)c(C2=NN3CCC4CNc5ccccc5C43S2)c1 (stereo not drawn) [compound 3101]
EC50 (HCT-116): > 1000 nM

Next, values leading:

EC50 [1]: ≤ 500 nM
SMILES: COCCOCC(=O)N1N=C(c2cc(F)ccc2F)S[C@@]12c1ccccc1OC[C@H]2CCN [compound 1909]

EC50 [1]: > 1000 nM
SMILES: COCCOCC(=O)N1N=C(c2cc(F)ccc2F)S[C@]12c1ccccc1OC[C@@H]2CCN [compound 1910]

EC50 [3]: ≤ 500 nM
SMILES: COCC(=O)N1N=C(c2cc(F)ccc2F)S[C@]12c1ccccc1OC[C@@H]2CCN [compound 2003]

EC50 [3]: ≤ 500 nM
SMILES: COCC(=O)N1N=C(c2cc(F)ccc2F)S[C@@]12c1ccccc1OC[C@H]2CCN [compound 2004]

EC50 [3]: ≤ 500 nM
SMILES: NCC[C@H]1COc2ccccc2[C@]12SC(c1cc(F)ccc1F)=NN2C(=O)C(F)F [compound 2005]

EC50 [3]: ≤ 500 nM
SMILES: CO[C@@H](C)C(=O)N1N=C(c2cc(F)ccc2F)S[C@]12c1ccccc1OC[C@@H]2CCN [compound 2007]

EC50 [3]: ≤ 500 nM
SMILES: CO[C@@H](C)C(=O)N1N=C(c2cc(F)ccc2F)S[C@@]12c1ccccc1OC[C@H]2CCN [compound 2008]

EC50 [4]: > 1000 nM
SMILES: CCOC(=O)N1N=C(c2cc(F)ccc2F)S[C@]12c1cc(F)ccc1OC[C@@H]2CCN [compound 2102]

EC50 [4]: > 1000 nM
SMILES: CCOC(=O)N1N=C(c2cc(F)ccc2F)S[C@@]12c1ccccc1OC[C@H]2CCN [compound 2103]

EC50 [4]: ≤ 500 nM
SMILES: CCOC(=O)N1N=C(c2cc(F)ccc2F)S[C@]12c1ccccc1OC[C@@H]2CCN [compound 2104]

EC50 [5]: > 1000 nM
SMILES: CN(C)C(=O)N1N=C(c2cc(F)ccc2F)S[C@]12c1cc(F)ccc1OC[C@@H]2CCN [compound 2202]

EC50 [5]: ≤ 500 nM
SMILES: CN(C)C(=O)N1N=C(c2cc(F)ccc2F)S[C@]12c1ccccc1OC[C@@H]2CCN [compound 2204]

EC50 [5]: > 1000 nM
SMILES: NCC[C@@H]1COc2ccccc2[C@@]12SC(c1cc(F)ccc1F)=NN2C(=O)N1CCOCC1 [compound 2205]

EC50 [5]: > 1000 nM
SMILES: NCC[C@H]1COc2ccccc2[C@]12SC(c1cc(F)ccc1F)=NN2C(=O)N1CCOCC1 [compound 2206]

EC50 [6]: ≤ 500 nM
SMILES: CC(=O)N1N=C(c2cc(F)ccc2F)SC12c1ccccc1OCC2CCO (stereo not drawn) [compound 2301]

EC50 (HCT-116, 16 h, table of Example 2801, HCT116 cells, 16 hours with drug): ≤ 500 nM
SMILES: CC(=O)N1N=C(c2cc(F)ccc2F)S[C@]12c1ccccc1NC[C@H]2CCN [compound 2801]
